Data published in publication PMC10269561, “Absence of Clinically Meaningful Drug-Drug Interactions with Rezafungin: Outcome of Investigations” (Microbiology Spectrum, 2023).
Numbered stars: 1 amine (or outer) side, 2 acyl side, 3 side chain; on linkers, the order of the positions; unused ones are H or OH. Bridge positions count the residues as written; N and C are the ends. Square brackets hold non-standard residues; d marks the D form. Peptide text beside a SMILES is read from it. * marks the point of attachment. Orn(4R-OH,5R-OCH2CH2NMe3+) = C[N+](C)(C)CCO[C@@H](N[*:3])[C@H](O)C[C@H](N[*:1])C(=O)[*:2]; pTerphenylCO(4''-OnC5H11) = CCCCCOc1ccc(-c2ccc(-c3ccc(C(=O)*)cc3)cc2)cc1; hTyr(3S-OH,4S-OH) = N[C@H](C(=O)O)[C@H](O)[C@@H](O)c1ccc(O)cc1; Pro(3S-OH,4S-Me) = C[C@H]1CN[C@H](C(=O)O)[C@H]1O; Hyp = O=C(O)[C@@H]1C[C@@H](O)CN1

Legend:
[1] = molecular target: BSEP (Homo sapiens, UniProt O95342); experiment: NC-152 BSEP inhibition in membrane vesicles; type: in vitro ADME
Description: (§1) Microbiology Spectrum Supplementary materials
(§2) Table S 4Summary of initial in vitro assessments […]
(§3) whether rezafungin can induce CYP isoforms 1A2, 2B6, or 3A4. mRNA expression) of CYP1A2 and CYP2B6, and, in the case of […]
(§4) Abbreviations: ABC = ATP binding cassette; BCRP = breast cancer resistance protein; BSEP = bile salt export pump; CYP = cytochrome P450; MATE = multidrug and toxic compound extrusion; MDCK = Madin-Darby canine kidney; MDR = multidrug resistance protein; mRNA = messenger ribonucleic acid; OAT = organic anion transporter; OATP = organic anion transporter protein; OCT – organic cation transporter; OCTN = organic cation transporter novel; P-gp = P-glycoprotein; SLC = solute carrier.

[2] = Study 1 safety and tolerability (TEAEs); type: in vivo, human
Description: After screening, subjects were admitted to the clinical research unit (CRU) prior to the first dose of rezafungin (from day −22) and were discharged from the CRU on day 22. Nine oral substrate drugs were administered as part of a cocktail containing two or more drugs once before and once after receiving rezafungin on a schedule designed to allow the washout of the drugs in the cocktail between doses and limit interactions with other drugs (Fig. 4A). […] A loading dose of rezafungin for injection (600 mg) was administered over 1 h on day 1, followed by two once-weekly 400-mg doses over 1 h on days 10 and 15. Due to a short delay in the availability of the investigation study drug, the second once-weekly dose of rezafungin and the second set of oral substrate drugs were administered on day 10 instead of day 8, although the time between doses remained sufficient for all originally planned PK samplings through 96 h postdose and for the adequate washout of the substrate drugs. The total duration of treatment was up to 89 days, including 45 days of screening and 44 days of treatment in the CRU.
as §1
Table S 2Summary of t reatment-emergent adverse e vents for Study 1
System Organ Class Safety Population Adverse Event Severity(N=26), n Rezafungin Safety Population (N=26), n
Adverse Event Mild Moderate Severe Mild Moderate Severe […]

[3] = molecular target: human MATE1 (Homo sapiens, UniProt Q96FL8); experiment: NC-152 transporter inhibition, MATE1; type: in vitro ADME
Description: Abbreviations: ABC = ATP binding cassette; BCRP = breast cancer resistance protein; BSEP = bile salt export pump; CYP = cytochrome P450; MATE =
multidrug and toxic compound extrusion; MDCK = Madin-Darby canine kidney; MDR = multidrug resistance protein; mRNA = messenger ribonucleic acid;
OAT = organic anion transporter; OATP = organic anion transporter protein; OCT – organic cation transporter; OCTN = organic cation transporter novel; P-gp =
P-glycoprotein; SLC = solute carrier.

[4] = molecular target: T1, CYP2C19 (Homo sapiens, UniProt P33261); experiment: NC-153 time-dependent inhibition in human liver microsomes, CYP2C19; type: in vitro ADME; details: 0.1 to 25 μM
Description: as §1, §2, §3, §4

[5] = molecular target: CYP2D6 (Homo sapiens, UniProt P10635); experiment: NC-012 CYP450 inhibition screening, recombinant CYP2D6; type: in vitro ADME; details: 10 μM, fluorogenic substrate, recombinant human CYP
Description: as §1, §2, §3, §4

[6] = molecular target: MRP2 (Homo sapiens, UniProt Q92887); experiment: NC-160 substrate interaction, MRP2; type: in vitro ADME; details: efflux (ABC) transporter
Description: as §1, §2, §3, §4

[7] = Precipitation in human liver microsome incubations (NC-153); type: physicochemical
Description: as §1, §2, §3, §4

[8] = Study 2 safety and tolerability (TEAEs)
Description: After screening, subjects were admitted to the CRU on day −17 (prior to the first rezafungin dose) and were discharged on day 22. Rezafungin was dosed via i.v. infusion over 1 h at 400 mg on day 1 and 200 mg on day 8 and day 15. The oral drugs to be tested for interactions were each administered twice on a schedule designed to allow washout between doses: once alone and once while receiving rezafungin (Fig. 4B). The total duration of treatment was approximately 84 days, which included 45 days of screening and 39 days of treatment in the CRU.
In both studies, the safety population included all subjects who received any amount of the study drug. In study 1, the rezafungin safety population included all subjects who received any amount of rezafungin. Safety assessments included vital signs (temperature, heart rate, blood pressure, and respiratory rate), safety laboratory evaluations (hematology assessment, serum chemistry panel, and urinalysis), physical examinations (complete and symptom directed), and EKGs.
as §1
Abbreviations: TEAE = treatment-emergent adverse event.
N = number of subjects in the safety population; n = number of subjects in a sample.
Notes: Each TEAE was counted only once for each subject within each System Organ Class and Preferred Term.

[9] = molecular target: human OCT2 (Homo sapiens, UniProt O15244); experiment: NC-152 transporter inhibition, OCT2; type: in vitro ADME; details: in vitro cell test system
Description: as §1, §2, §3, §4

[10] = molecular target: OCTN1 (Homo sapiens, UniProt Q9H015); experiment: NC-160 substrate interaction, OCTN1; type: in vitro ADME; details: uptake SLC transporter
Description: as §1, §2, §3, §4

[11] = molecular target: human OAT3 (Homo sapiens, UniProt Q8TCC7); experiment: NC-152 transporter inhibition, OAT3; type: in vitro ADME; details: in vitro cell test system
Description: as §1, §2, §3, §4

[12] = molecular target: T2, CYP2C9 (Homo sapiens, UniProt P11712); experiment: NC-012 CYP450 inhibition screening, recombinant CYP2C9; type: in vitro ADME; details: 10 μM, fluorogenic substrate, recombinant human CYP
Description: as §1, §2, §3, §4

[13] = cited from earlier work
Description: Rezafungin is a novel echinocandin currently in development for the treatment of candidemia and invasive candidiasis as well as for prophylaxis against fungal diseases caused by Candida, Aspergillus, and Pneumocystis species in people undergoing allogeneic blood and marrow transplantation ([33][–][35]). […] It has als ...

[14] = molecular target: T2, CYP2C9; experiment: NC-153 time-dependent inhibition in human liver microsomes, CYP2C9; type: in vitro ADME; details: 0.1 to 25 μM
Description: as §1, §2, §3, §4

[15] = molecular target: T1, CYP2C19; experiment: NC-012 CYP450 inhibition screening, recombinant CYP2C19; type: in vitro ADME; details: 10 μM, fluorogenic substrate, recombinant human CYP
Description: as §1, §2, §3, §4

human MATE1, sequence (Q96FL8 whole entry): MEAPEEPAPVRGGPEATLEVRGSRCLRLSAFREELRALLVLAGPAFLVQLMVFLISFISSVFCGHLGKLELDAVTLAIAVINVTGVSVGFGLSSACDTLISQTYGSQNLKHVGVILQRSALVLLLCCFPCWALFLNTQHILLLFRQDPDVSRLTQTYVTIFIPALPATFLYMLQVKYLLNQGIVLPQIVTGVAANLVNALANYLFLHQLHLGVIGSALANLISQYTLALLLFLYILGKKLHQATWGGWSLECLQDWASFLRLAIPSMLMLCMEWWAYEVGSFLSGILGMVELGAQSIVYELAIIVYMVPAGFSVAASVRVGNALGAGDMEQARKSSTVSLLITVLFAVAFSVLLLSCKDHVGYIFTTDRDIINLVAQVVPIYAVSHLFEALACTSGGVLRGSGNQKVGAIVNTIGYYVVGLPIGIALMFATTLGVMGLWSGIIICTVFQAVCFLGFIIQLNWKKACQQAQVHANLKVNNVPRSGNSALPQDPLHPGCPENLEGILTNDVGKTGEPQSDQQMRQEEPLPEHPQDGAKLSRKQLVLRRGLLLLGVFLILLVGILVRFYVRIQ
T1 sequence (P33261 whole entry): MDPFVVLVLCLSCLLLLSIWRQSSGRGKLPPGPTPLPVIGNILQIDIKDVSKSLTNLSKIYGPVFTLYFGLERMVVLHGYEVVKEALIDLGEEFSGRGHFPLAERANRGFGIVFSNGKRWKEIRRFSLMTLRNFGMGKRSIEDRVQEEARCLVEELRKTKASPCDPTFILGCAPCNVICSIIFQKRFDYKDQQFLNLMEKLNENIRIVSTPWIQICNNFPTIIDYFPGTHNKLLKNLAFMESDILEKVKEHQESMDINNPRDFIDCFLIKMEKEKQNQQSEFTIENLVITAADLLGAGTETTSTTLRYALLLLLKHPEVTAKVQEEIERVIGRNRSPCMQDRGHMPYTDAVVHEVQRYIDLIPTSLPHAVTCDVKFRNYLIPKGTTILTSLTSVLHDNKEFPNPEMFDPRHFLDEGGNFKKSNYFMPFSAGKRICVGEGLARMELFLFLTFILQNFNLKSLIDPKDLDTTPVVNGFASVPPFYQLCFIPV
T2 sequence (P11712 whole entry): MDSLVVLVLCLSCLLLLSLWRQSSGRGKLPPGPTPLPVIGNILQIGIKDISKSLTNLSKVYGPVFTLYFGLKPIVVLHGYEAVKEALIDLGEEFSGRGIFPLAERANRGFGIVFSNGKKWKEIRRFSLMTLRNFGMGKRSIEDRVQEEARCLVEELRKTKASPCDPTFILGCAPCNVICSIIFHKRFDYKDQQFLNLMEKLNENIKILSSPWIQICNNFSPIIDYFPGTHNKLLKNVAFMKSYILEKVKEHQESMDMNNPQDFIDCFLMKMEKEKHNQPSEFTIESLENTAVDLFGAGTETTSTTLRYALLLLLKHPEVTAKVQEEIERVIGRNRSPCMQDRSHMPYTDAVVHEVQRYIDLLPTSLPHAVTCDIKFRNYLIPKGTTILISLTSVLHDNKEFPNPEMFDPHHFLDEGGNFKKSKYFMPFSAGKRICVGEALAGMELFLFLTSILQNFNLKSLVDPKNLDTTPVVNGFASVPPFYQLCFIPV
human OAT3, sequence (Q8TCC7 whole entry): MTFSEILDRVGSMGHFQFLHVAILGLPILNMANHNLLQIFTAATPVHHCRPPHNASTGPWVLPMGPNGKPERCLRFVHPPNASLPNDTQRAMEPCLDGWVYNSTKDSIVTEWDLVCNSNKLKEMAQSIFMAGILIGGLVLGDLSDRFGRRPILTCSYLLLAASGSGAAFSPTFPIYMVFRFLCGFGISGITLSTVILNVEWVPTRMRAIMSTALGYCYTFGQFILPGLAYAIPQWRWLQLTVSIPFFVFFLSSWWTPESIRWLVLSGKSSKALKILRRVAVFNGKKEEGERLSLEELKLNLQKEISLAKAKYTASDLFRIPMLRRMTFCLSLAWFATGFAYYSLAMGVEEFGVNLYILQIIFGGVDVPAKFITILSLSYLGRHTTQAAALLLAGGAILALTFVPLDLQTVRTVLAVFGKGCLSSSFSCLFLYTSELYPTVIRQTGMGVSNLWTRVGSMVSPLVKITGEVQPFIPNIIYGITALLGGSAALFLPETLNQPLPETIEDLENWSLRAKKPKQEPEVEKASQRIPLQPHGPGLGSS
OCTN1, sequence (Q9H015 whole entry): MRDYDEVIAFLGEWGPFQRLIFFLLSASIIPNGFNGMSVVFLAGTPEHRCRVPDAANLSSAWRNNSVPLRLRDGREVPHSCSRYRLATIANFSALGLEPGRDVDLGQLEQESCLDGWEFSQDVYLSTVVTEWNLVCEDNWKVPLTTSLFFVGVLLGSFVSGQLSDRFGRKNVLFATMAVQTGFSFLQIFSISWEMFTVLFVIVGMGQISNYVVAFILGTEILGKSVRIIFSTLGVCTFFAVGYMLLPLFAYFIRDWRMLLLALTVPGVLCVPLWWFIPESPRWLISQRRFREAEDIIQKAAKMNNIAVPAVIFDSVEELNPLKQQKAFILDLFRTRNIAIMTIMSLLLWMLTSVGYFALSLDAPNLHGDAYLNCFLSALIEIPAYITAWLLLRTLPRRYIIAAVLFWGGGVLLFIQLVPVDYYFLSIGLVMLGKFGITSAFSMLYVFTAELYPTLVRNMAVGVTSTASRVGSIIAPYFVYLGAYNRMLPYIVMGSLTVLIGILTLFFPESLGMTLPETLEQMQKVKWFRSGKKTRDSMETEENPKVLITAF
BSEP, sequence (O95342 whole entry): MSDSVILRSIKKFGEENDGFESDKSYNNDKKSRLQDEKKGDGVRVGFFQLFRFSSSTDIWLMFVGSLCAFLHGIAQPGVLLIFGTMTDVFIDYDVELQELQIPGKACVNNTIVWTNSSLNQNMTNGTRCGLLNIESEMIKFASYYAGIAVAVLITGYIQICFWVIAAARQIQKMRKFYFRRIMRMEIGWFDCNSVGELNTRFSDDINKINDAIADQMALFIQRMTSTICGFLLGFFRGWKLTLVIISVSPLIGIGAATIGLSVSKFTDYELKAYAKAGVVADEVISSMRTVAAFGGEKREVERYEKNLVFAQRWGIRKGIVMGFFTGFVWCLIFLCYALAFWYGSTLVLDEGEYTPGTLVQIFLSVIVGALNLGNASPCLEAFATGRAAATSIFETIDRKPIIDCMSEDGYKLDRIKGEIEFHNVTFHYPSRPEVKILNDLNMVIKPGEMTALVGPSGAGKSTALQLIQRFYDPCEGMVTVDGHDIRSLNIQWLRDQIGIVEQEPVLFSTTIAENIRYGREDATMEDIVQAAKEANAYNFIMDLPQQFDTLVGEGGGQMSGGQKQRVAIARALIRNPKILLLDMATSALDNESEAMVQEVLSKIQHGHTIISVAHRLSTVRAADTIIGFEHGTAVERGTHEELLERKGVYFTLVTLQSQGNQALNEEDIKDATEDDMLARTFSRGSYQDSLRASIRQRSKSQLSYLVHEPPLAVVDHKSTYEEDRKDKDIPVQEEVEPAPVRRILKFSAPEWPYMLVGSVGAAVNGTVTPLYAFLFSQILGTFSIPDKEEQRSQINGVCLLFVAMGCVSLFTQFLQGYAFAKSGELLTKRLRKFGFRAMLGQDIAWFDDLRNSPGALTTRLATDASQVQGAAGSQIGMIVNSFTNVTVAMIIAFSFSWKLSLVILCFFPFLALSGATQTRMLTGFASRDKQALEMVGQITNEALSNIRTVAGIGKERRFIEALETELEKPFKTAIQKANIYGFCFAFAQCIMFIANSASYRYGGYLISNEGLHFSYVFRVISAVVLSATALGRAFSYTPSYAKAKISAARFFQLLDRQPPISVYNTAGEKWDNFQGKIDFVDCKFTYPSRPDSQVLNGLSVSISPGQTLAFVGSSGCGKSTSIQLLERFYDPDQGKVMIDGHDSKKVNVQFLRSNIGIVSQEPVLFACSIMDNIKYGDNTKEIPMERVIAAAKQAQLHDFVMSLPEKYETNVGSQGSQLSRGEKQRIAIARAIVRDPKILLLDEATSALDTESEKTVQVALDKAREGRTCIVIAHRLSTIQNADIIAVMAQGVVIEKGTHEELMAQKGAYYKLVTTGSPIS
CYP2D6, sequence (P10635 whole entry): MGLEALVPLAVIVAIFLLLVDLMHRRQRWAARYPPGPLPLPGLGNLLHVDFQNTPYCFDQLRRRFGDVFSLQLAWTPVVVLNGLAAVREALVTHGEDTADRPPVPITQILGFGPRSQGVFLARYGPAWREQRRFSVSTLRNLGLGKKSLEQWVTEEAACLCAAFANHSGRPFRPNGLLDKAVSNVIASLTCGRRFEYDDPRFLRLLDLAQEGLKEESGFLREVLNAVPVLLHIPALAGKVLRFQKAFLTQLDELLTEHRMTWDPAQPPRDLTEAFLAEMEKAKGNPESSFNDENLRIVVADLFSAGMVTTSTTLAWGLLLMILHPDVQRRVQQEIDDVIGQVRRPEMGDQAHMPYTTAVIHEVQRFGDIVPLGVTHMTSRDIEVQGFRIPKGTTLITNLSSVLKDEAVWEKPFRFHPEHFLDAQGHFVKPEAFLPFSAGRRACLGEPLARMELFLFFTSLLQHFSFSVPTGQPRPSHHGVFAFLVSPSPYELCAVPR
human OCT2, sequence (O15244 whole entry): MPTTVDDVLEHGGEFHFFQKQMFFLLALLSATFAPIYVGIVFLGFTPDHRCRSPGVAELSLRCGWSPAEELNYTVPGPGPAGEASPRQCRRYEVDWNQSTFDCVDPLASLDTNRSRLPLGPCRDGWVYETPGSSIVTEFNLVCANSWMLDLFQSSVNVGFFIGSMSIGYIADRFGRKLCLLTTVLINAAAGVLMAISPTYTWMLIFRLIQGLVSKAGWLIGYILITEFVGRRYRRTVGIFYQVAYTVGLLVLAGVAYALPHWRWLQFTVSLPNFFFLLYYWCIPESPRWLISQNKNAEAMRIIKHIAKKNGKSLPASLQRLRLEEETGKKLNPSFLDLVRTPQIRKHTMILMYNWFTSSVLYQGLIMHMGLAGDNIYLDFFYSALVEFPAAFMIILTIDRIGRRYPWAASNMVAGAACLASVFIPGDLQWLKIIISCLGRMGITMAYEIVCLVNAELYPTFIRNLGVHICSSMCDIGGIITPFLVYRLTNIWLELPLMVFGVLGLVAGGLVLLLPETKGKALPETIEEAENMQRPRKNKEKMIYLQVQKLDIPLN

CCCCCOc1ccc(-c2ccc(-c3ccc(C(=O)N[C@H]4C[C@@H](O)[C@@H](OCC[N+](C)(C)C)NC(=O)[C@@H]5[C@@H](O)[C@@H](C)CN5C(=O)[C@H]([C@@H](C)O)NC(=O)[C@H]([C@H](O)[C@@H](O)c5ccc(O)cc5)NC(=O)[C@@H]5C[C@@H](O)CN5C(=O)[C@H]([C@@H](C)O)NC4=O)cc3)cc2)cc1 [Rezafungin] ({pTerphenylCO(4''-OnC5H11)}-[Orn(4R-OH,5R-OCH2CH2NMe3+)]T[Hyp][hTyr(3S-OH,4S-OH)]T[Pro(3S-OH,4S-Me)]; lactam 1-C)
inhibitor of probe substrate transport mediated via BSEP [1]: not | serious TEAEs, deaths, discontinuations due to a TEAE ([2]; Study 1): no serious TEAEs or deaths or discontinuations due to a TEAE | tolerability ([2]; once-weekly i.v. infusions, 600-mg loading dose followed by two 400-mg maintenance doses): generally well tolerated | inhibitor of probe substrate transport mediated via MATE1 ([3]; in vitro cell test system, NC-152): determined to be an inhibitor | IC50 ([3]; initial in vitro studies, read-out: IC50, MATE-1 uptake transporter (moderate inhibition)): > 6 µM | time-dependent inhibitor of CYP2C19 [4]: not a time-dependent inhibitor | inhibition of CYP2D6 [5]: Minimal inhibition | substrate of MRP2 [6]: not a substrate | concentration at which precipitation occurred [7]: ≥ 25 µM | deaths or serious adverse events ([8]; Study 2): no deaths or serious adverse events | severe TEAE deemed by the investigator to be related to the drug ([8]; Study 2, one subject each): abdominal pain | tolerability ([8]; once-weekly i.v. infusions, 400-mg loading dose followed by two 200-mg maintenance doses): generally well tolerated | inhibitor of probe substrate transport mediated via OCT2 [9]: determined to be an inhibitor | substrate of OCTN1 [10]: not a substrate | inhibitor of probe substrate transport mediated via OAT3 [11]: not | inhibition of CYP2C9 [12]: Minimal inhibition | half-life [13]: around 130 h | chemical stability ([13]; incubated in phosphate-buffered saline, no evidence of reactive intermediate formation): chemically stable | metabolic stability in hepatocytes ([13]; preclinical data): metabolically stable | metabolic stability in liver microsomes ([13]; preclinical data): metabolically stable | time-dependent inhibitor of CYP2C9 [14]: not a time-dependent inhibitor | inhibition of CYP2C19 [15]: Minimal inhibition
